Test results published in patent US20240090503A1, “FUNGICIDAL OXADIAZOLES AND THEIR MIXTURES” (FMC CORPORATION, priority 2020, published 2024).
Where two headings read alike, the source gives them in different places.

How the values were obtained:
[1] = test system: Phakopsora pachyrhizi (the causal agent of Asian soybean rust); assay: Test A: preventive spray on soybean seedlings, Asian soybean rust, visual disease rating; format: in vivo; details: for pest or weed control at 10 µg/mL: Phakopsora pachyrhizi, 216 h, read-out: Test A disease control rating
Source text: (§1) General protocol for preparing test suspensions for Tests A-D: the test compounds were first dissolved in acetone in an amount equal to 3% of the final volume and then suspended at the desired concentration (in ppm) in acetone and purified water (50/50 mix by volume) containing 250 ppm of the surfactant PEG400 (polyhydric alcohol esters). The resulting test suspensions were then used in Tests A-D.
(§2) The test suspension was sprayed to the point of run-off on soybean seedlings. The following day the seedlings were inoculated with a spore suspension of Phakopsora pachyrhizi (the causal agent of Asian soybean rust) and incubated in a saturated atmosphere at 22° C. for 24 h and then moved to a growth chamber at 22° C. for 8 days, after which time visual disease ratings were made.
(§3) The test results for Tests A-C presented in Table A below for compounds of Formula 1 illustrate the fungicidal activity of component (a) contributing to the plant disease control utility of compositions comprising component (a) in combination with component (b) according to the present invention. In the Table, a rating of 100 indicates 100% disease control and a rating of 0 indicates no disease control (relative to the controls). A dash (-) indicates the compound was not tested. The test suspensions were sprayed at the concentration listed in the column “Rate in ppm”, unless otherwise indicated. An asterisk “*” next to the rating indicates a 250 ppm test suspension was used, a double asterisk “**” next to the rating indicates a 100 ppm test suspension was used, and a triple asterisk “***” next to the rating indicates a 50 ppm test suspension was used.

[2] = test system: Puccinia recondita f. sp. tritici (the causal agent of wheat leaf rust); assay: Test C: preventive spray on wheat seedlings, wheat leaf rust, visual disease rating; format: in vivo; details: for pest or weed control at 10 µg/mL: Puccinia recondita, 168 h, read-out: Test C disease control rating
Source text: as §1
as §2, with “on wheat” for “on soybean”, “of Puccinia recondita f. sp. tritici;” for “of Phakopsora pachyrhizi”, “of wheat leaf” for “of Asian soybean”, “at 20°” for “at 22°”, “24 h,” for “24 h”, “for 6” for “for 8”
as §3

[3] = 10 ppm test suspension, soybean seedlings, 100 = 100% disease control, 0 = no control
[4] = 10 ppm test suspension, wheat seedlings, 100 = 100% disease control, 0 = no control
[5] = test suspension 10 ppm, soybean seedlings, 100 = 100% disease control, 0 = no control
[6] = test suspension 10 ppm, wheat seedlings

SMILES: COCCCOC(=O)c1cnn(Cc2ccc(-c3noc(C(F)(F)F)n3)cc2)c1 [compound 474]
- Test A disease control rating [1, 3]: 100%
- Test C disease control rating [2, 4]: 100%

SMILES: O=C(OCCCl)c1cnn(Cc2ccc(-c3noc(C(F)(F)F)n3)cc2)c1 [compound 477]
- Test A disease control rating [1, 3]: 100%
- Test C disease control rating [2, 4]: 100%

SMILES: Cc1cc2c(cnn2Cc2ccc(-c3noc(C(F)(F)F)n3)cc2)cc1Br [compound 32]
- Test A disease control rating [1, 5]: 96%
- Test C disease control rating [2, 6]: 68%

SMILES: CON=C(C)COC(=O)c1cnn(Cc2ccc(-c3noc(C(F)(F)F)n3)cc2)c1 [compound 350]
- Test A disease control rating [1, 5]: 100%
- Test C disease control rating [2, 6]: 99%

SMILES: Nc1ncnc2c1cnn2Cc1ccc(-c2noc(C(F)(F)F)n2)cc1 [compound 407]
- Test A disease control rating [1, 3]: 100%
- Test C disease control rating [2, 4]: 100%

SMILES: CCOC(=O)c1cn(Cc2ccc(-c3noc(C(F)(F)F)n3)cc2)nn1 [compound 303]
- Test A disease control rating [1, 5]: 100%
- Test C disease control rating [2, 6]: 100%

SMILES: CONC(=O)c1cnn(Cc2ccc(-c3noc(C(F)(F)F)n3)cc2)c1 [compound 272]
- Test A disease control rating [1, 5]: 100%
- Test C disease control rating [2, 6]: 100%

SMILES: N#Cc1ccc(COC(=O)c2cnn(Cc3ccc(-c4noc(C(F)(F)F)n4)cc3)c2)cc1 [compound 301]
- Test A disease control rating [1, 5]: 100%
- Test C disease control rating [2, 6]: 100%

SMILES: N#Cc1cnn(Cc2ccc(-c3noc(C(F)(F)F)n3)s2)c1 [compound 189]
- Test A disease control rating ([1]; test suspension 50 ppm, soybean seedlings): 100%
- Test C disease control rating ([2]; test suspension 50 ppm, wheat seedlings): 100%

SMILES: N#Cc1cnn(CCc2ccc(-c3noc(C(F)(F)F)n3)cc2)c1 [compound 435]
- Test A disease control rating [1, 3]: 100%
- Test C disease control rating [2, 4]: 74%

SMILES: O=C1N(Cc2ccc(-c3noc(C(F)(F)F)n3)cc2)CCc2cncn21 [compound 462]
- Test A disease control rating [1, 3]: 100%
- Test C disease control rating [2, 4]: 89%

SMILES: COc1ccc2c(cnn2Cc2ccc(-c3noc(C(F)(F)F)n3)s2)c1 [compound 195]
- Test A disease control rating [1, 5]: 100%
- Test C disease control rating [2, 6]: 98%

SMILES: O=Cc1cnn(Cc2ccc(-c3noc(C(F)(F)F)n3)s2)c1 [compound 197]
- Test A disease control rating [1, 5]: 99%
- Test C disease control rating [2, 6]: 98%

SMILES: CCOC(=O)c1cnn(C[S+]([O-])Cc2ccc(-c3noc(C(F)(F)F)n3)cc2)c1 (centres unmarked) [compound 242]
- Test A disease control rating [1, 5]: 100%
- Test C disease control rating [2, 6]: 99%

SMILES: CN1CCCC1COC(=O)c1cnn(Cc2ccc(-c3noc(C(F)(F)F)n3)cc2)c1 (centres unmarked) [compound 340]
- Test A disease control rating [1, 5]: 100%
- Test C disease control rating [2, 6]: 94%

SMILES: COc1ccc2c(cnn2Cc2ccc(-c3noc(C(F)(F)F)n3)cc2)c1 [compound 126]
- Test A disease control rating ([1]; test suspension 260 ppm, soybean seedlings): 100%
- Test C disease control rating ([2]; test suspension 260 ppm, wheat seedlings): 100%

SMILES: CCOC(=O)c1cc(C)n(Cc2ccc(-c3noc(C(F)(F)F)n3)s2)n1 [compound 73]
- Test A disease control rating [1, 5]: 100%
- Test C disease control rating [2, 6]: 86%

SMILES: C=CCOC(=O)c1cnn(Cc2cc(OC)c(-c3noc(C(F)(F)F)n3)s2)c1 [compound 440]
- Test A disease control rating [1, 3]: 0%
- Test C disease control rating [2, 4]: 0%

SMILES: COC(=O)c1cccc2c1cnn2Cc1ccc(-c2noc(C(F)(F)F)n2)cc1 [Compound 49, methyl 1-[[4-[5-(trifluoromethyl)-1,2,4-oxadiazol-3-yl]phenyl]methyl]-1H-indazole-4-carboxylate]
- pest or weed control at 10 µg/mL [1, 5]: 100%
- pest or weed control at 10 µg/mL [2, 6]: 100%

SMILES: CCOC(=O)c1cnn(Cc2ccc3cc(-c4noc(C(F)(F)F)n4)ccc3c2)c1 [compound 457]
- Test A disease control rating ([1]; 50 ppm test suspension, soybean seedlings, 100 = 100% disease control, 0 = no control): 77%
- Test C disease control rating ([2]; 50 ppm test suspension, wheat seedlings, 100 = 100% disease control, 0 = no control): 0%

SMILES: CCCOC(=O)c1cnn(Cc2cc(OC)c(-c3noc(C(F)(F)F)n3)s2)c1 [compound 439]
- Test A disease control rating [1, 3]: 0%
- Test C disease control rating [2, 4]: 0%

SMILES: O=C(NCCCl)c1coc(Cc2ccc(-c3noc(C(F)(F)F)n3)cc2)n1 [Compound 204, N-(2-chloroethyl)-2-[[4-[5-(trifluoromethyl)-1,2,4-oxadiazol-3-yl]phenyl]methyl]-4-oxazolecarboxamide]
- pest or weed control at 10 µg/mL [1]: 100%
- pest or weed control at 10 µg/mL [2]: 100%
